What all share (test): NCI-60 cell line screen, 48 h
In experiment [1] the test system is CAKI-1 renal.
Experiment [2] relates to K-562 leukemia.
In experiment [3] the test system is M14 melanoma.
Experiment [4] deals with NCI-H460 lung.
Experiment [5] relates to OVCAR-3 ovarian.
Experiment [6] concerns OVCAR-8 ovarian.
In experiment [7] the test system is RXF 393 renal.
The test system of experiment [8] is SF-539 CNS.
The subject of experiment [9] is SN12C renal.
Experiment [10] relates to T-47D breast.

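In this assay, cells in 96-well plates receive the compound at five concentrations for 48 hours. Endpoints are linearly interpolated between the surrounding concentrations. At the GI50, growth is halved. The concentration for full growth arrest is given as TGI.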 A value given as a limit tells only on which side of the number the result lay.

Consider `CCOc1cc2c(NCCCN(CCO)CCO)ncnc2c(OCC)c1OCC`, for which the TGI in [1], in [2], in experiment [3], in experiment [4], in [5] and in [6] was above 100 µM in each case. For the same molecule, the TGI in experiment [7], in [8], in [9] and in experiment [10] was above 100 µM each time.

On to `Cn1c(=O)c(Oc2ccccc2F)cc2cnc(NC3CCOCC3)nc21`, for which the GI50 in experiment [1], in experiment [2], in experiment [3], in [4], in experiment [5] and in [6] was above 25 µM throughout. The GI50 in experiment [7], in [8], in experiment [9] and in experiment [10] was above 25 µM in each case. The TGI in experiment [1], in experiment [2], in experiment [3], in [4], in experiment [5] and in experiment [6] was above 25 µM throughout. The TGI in experiment [7], in experiment [8], in [9] and in experiment [10] was above 25 µM throughout.

For `CCN1C(=S)N(CC)C2C1NC(=S)N2/N=C/C=C/c1ccccc1` (stereo not given), the GI50 was 0.776 µM in experiment [1]; 0.382 µM in experiment [2]; 0.879 µM in [3]; 1.79 µM in [4]; 0.52 µM in [5]; 4.47 µM in experiment [6]. For the same molecule, the GI50 in experiment [7] was 1.57 µM; in experiment [8], 1.67 µM; in experiment [9], 3.49 µM; in [10], 3.55 µM. Besides, the TGI in experiment [1] stood at 18.6 µM; in experiment [2], 14.1 µM; in [3], 12.9 µM; in [4], 12.7 µM; in experiment [5] it was 4.97 µM; in experiment [6] it was 23.5 µM. In addition, the TGI amounted to 6.58 µM in experiment [7], 5.4 µM in experiment [8], 16.8 µM in experiment [9] and 18.2 µM in experiment [10].

Take `CC1=C[C@H]2c3c(c(O)c(O)c4oc5ccccc5c(=O)c34)[C@H](c3cc(O)c(O)c4oc5ccccc5c(=O)c34)[C@H]2C(C)(C)C1`: the GI50 was 0.675 µM in experiment [1]; 0.22 µM in [2]; 1.36 µM in experiment [3]; 0.22 µM in experiment [4]; 0.426 µM in experiment [5]; 0.93 µM in experiment [6]. For the same molecule, the GI50 in experiment [7] was 0.42 µM; in experiment [8], 1.1 µM; in [9], 1.36 µM; in experiment [10], 0.764 µM. In addition, the TGI in [1] is 8.34 µM; in experiment [2], above 100 µM; in [3], 5.66 µM; in experiment [4], 1.83 µM; in experiment [5] it was 10.5 µM; in experiment [6], 46.9 µM. In addition, the TGI amounted to 2.52 µM in experiment [7], 4.89 µM in experiment [8], 6.71 µM in experiment [9] and 19.3 µM in experiment [10].

Turning to `Cn1ncc2c(N)nc(N3CCCCC3)nc21`, the GI50 in experiment [1] was 29 µM; in experiment [2] it was 62 µM; in experiment [3] it was 42.6 µM; in experiment [4], 42.5 µM; in experiment [5], 19.9 µM; in [6], 25.9 µM. The GI50 in experiment [7] is 18.2 µM; in [8] it was 25.4 µM; in experiment [9], 28.5 µM; in [10], 3.75 µM. Also, the TGI was above 100 µM in [1]; above 100 µM in experiment [2]; above 100 µM in experiment [3]; above 100 µM in experiment [4]; 71.7 µM in experiment [5]; 76.1 µM in experiment [6]. Also, the TGI in experiment [7] is 58.7 µM; in experiment [8], above 100 µM; in experiment [9] it was 75.2 µM; in experiment [10], 34.6 µM.

As to `O=C(Nc1ccc(Cl)cc1)c1ccc(NC2=C(Cl)C(=O)N(Cc3ccccc3)C2=O)cc1`, the GI50 in experiment [1] was 15.3 µM; in [2] it was 3.29 µM; in experiment [3], 15.2 µM; in [4], 25.1 µM; in experiment [5] it was 12.6 µM; in experiment [6], 7.92 µM. The GI50 in experiment [7] is 18.3 µM; in [8], 17.5 µM; in [9], 7.67 µM; in [10], 20.6 µM. Moreover, the TGI in experiment [1] is 31.5 µM; in experiment [2], 48.9 µM; in experiment [3] it was 35.8 µM; in [4] it was above 100 µM; in experiment [5], 28 µM; in experiment [6], 28.1 µM. Moreover, the TGI in experiment [7] was 44.9 µM; in experiment [8], 41.3 µM; in [9] it was 25.1 µM; in experiment [10], 67.3 µM.

As for `O=[N+]([O-])c1ccc(N/N=C/c2c(O)ccc3ccccc23)nc1`, the GI50 in experiment [1] is 0.518 µM; in [2] it was above 100 µM; in [3], 16.4 µM; in experiment [4], 3.3 µM; in experiment [5], 0.517 µM; in experiment [6] it was 5.78 µM. In addition, the GI50 was above 100 µM in experiment [7], 11.1 µM in experiment [8], 48.5 µM in [9] and 6.39 µM in experiment [10]. In addition, the TGI in [1], in experiment [2], in [3], in experiment [4], in experiment [5] and in [6] was above 100 µM each time. The TGI in experiment [7], in [8], in [9] and in experiment [10] was above 100 µM each time.

In the case of `OCC1OC(n2ccc3c(NO)ncnc32)C(O)C1O` (stereo not given), the GI50 is 0.0472 µM in [1]; 0.201 µM in experiment [2]; 0.077 µM in experiment [3]; 0.044 µM in experiment [4]; 0.249 µM in experiment [5]; 0.184 µM in experiment [6]. Further, the GI50 was 0.163 µM in experiment [7], 0.288 µM in [8], 0.212 µM in experiment [9] and 0.169 µM in [10]. In addition, the TGI in experiment [1] came out at 0.403 µM; in experiment [2] it was 4.53 µM; in experiment [3], 0.578 µM; in experiment [4], 4.45 µM; in experiment [5] it was 0.884 µM; in [6] it was 1.94 µM. Besides, the TGI was determined as 1.14 µM in [7], 1.29 µM in [8], 1.61 µM in experiment [9] and 1.96 µM in experiment [10].

In the case of `N#Cc1cnc2cc(OC[C@@H](O)CO)c(NC(=O)CC3CSSC3)cc2c1Nc1ccc(OCc2cccc(F)c2)c(Cl)c1`, the GI50 is 6.34 µM in experiment [1]; 0.0945 µM in experiment [2]; 0.0828 µM in experiment [3]; 0.104 µM in experiment [4]; 0.284 µM in experiment [5]; 0.651 µM in experiment [6]. The GI50 in experiment [7] was 0.643 µM; in experiment [8], 0.725 µM; in [9] it was 0.144 µM; in [10], 0.646 µM. Moreover, the TGI in experiment [1] worked out at 18.9 µM; in experiment [2], 0.207 µM; in experiment [3] it was 0.175 µM; in experiment [4] it was 0.261 µM; in experiment [5], 0.913 µM; in experiment [6], 1.85 µM. Also, the TGI in experiment [7] worked out at 1.44 µM; in experiment [8], 1.47 µM; in [9] it was 0.49 µM; in experiment [10], 1.59 µM.

With `COc1ccccc1NC(=O)n1nc(N)c2ccccc21`, the GI50 was above 100 µM in experiment [1]; 99.8 µM in [2]; above 100 µM in experiment [3]; 47.6 µM in experiment [4]; above 100 µM in experiment [5]; above 78.3 µM in experiment [6]. Moreover, the GI50 was 36.7 µM in experiment [7], 58.4 µM in [8], above 100 µM in experiment [9] and 12.1 µM in [10]. The TGI in experiment [1], in experiment [2], in [3], in [4], in [5] and in [6] was above 100 µM each time. The TGI in experiment [7], in experiment [8], in experiment [9] and in experiment [10] was above 100 µM throughout.

Turning to `NC(=O)c1cc(Br)cc(C2CCCCC2)c1O`, the GI50 was 6.15 µM in experiment [1]; 14.4 µM in experiment [2]; 12.8 µM in experiment [3]; 15.6 µM in experiment [4]; 13.2 µM in experiment [5]; 14.4 µM in experiment [6]. Besides, the GI50 is 6.44 µM in [7], 15.2 µM in experiment [8], 12.2 µM in experiment [9] and 11.5 µM in [10]. The TGI in experiment [1] is 20.3 µM; in experiment [2], 34.5 µM; in [3] it was 25.6 µM; in [4], 30.5 µM; in experiment [5], 25.9 µM; in experiment [6] it was 30 µM. In addition, the TGI is 22 µM in experiment [7], 30.2 µM in [8], 25.1 µM in [9] and 27 µM in [10].

On to `CCOC(=O)C(=Cc1ccccc1[N+](=O)[O-])C(=O)OCC`, for which the GI50 is 3.61 µM in experiment [1]; 3.64 µM in experiment [2]; 2.95 µM in experiment [3]; 3.25 µM in experiment [4]; 2.65 µM in experiment [5]; 2.87 µM in experiment [6]. Further, the GI50 was 1.33 µM in [7], 3.55 µM in experiment [8], 2.85 µM in experiment [9] and 3.68 µM in experiment [10]. The TGI is 14.3 µM in [1]; above 100 µM in [2]; 10.1 µM in experiment [3]; 10.8 µM in [4]; 6.48 µM in [5]; 11.3 µM in experiment [6]. Further, the TGI in [7] is 2.78 µM; in experiment [8], 9.32 µM; in experiment [9], 11.3 µM; in experiment [10], 17.5 µM.

In the case of `Cc1sc(C)c(Cc2c(C)sc(C)c2CCl)c1CCl`, the GI50 was above 100 µM in experiment [1]; 23 µM in experiment [2]; above 100 µM in [3]; above 100 µM in experiment [4]; above 100 µM in experiment [5]; above 100 µM in experiment [6]. Further, the GI50 in experiment [7], in experiment [8], in [9] and in [10] was above 100 µM in each case. Besides, the TGI in experiment [1], in experiment [2], in experiment [3], in experiment [4], in experiment [5] and in [6] was above 100 µM in each case. The TGI in experiment [7], in experiment [8], in [9] and in experiment [10] was above 100 µM throughout.

Take `Clc1ccc2[nH]cc(-c3nc(-c4c[nH]c5ncccc45)cs3)c2c1`: the GI50 in [1] was 1.73 µM; in experiment [2], 2.42 µM; in experiment [3], 3.2 µM; in experiment [4], 2.56 µM; in experiment [5], 6.69 µM; in experiment [6] it was 3.87 µM. Moreover, the GI50 is 2.69 µM in experiment [7], 4.97 µM in experiment [8], 4.78 µM in experiment [9] and 4.88 µM in [10]. Moreover, the TGI in experiment [1] was 11.2 µM; in [2], above 100 µM; in experiment [3], 11.1 µM; in experiment [4], 9.15 µM; in [5] it was 34.1 µM; in [6], 20.8 µM. Moreover, the TGI in experiment [7] was 11.4 µM; in [8] it was 21.2 µM; in [9], 20.9 µM; in [10] it was 33.7 µM.

For `Nc1nnc2cc(Cl)ccc2n1`, the GI50 in experiment [1], in experiment [2], in experiment [3], in [4], in [5] and in experiment [6] was above 100 µM throughout. In addition, the GI50 in experiment [7] was above 100 µM; in experiment [8], above 100 µM; in experiment [9], 16 µM; in [10], above 100 µM. In addition, the TGI in experiment [1], in experiment [2], in experiment [3], in experiment [4], in experiment [5] and in experiment [6] was above 100 µM throughout. For the same molecule, the TGI in experiment [7], in experiment [8], in [9] and in experiment [10] was above 100 µM each time.

The record behind these values is PubChem BioAssay (NCI).
